Measured values reported in patent US20090082341A1 (SYNOSIA THERAPEUTICS, priority 2007, published 2009).
Entries after “also recorded” stand apart in the source; their conditions may differ.

Legend:
[1] = target: A2A receptors in the monkey (Saimiri sp., UniProt A0A2K6V039); experiment: Radioligand binding assay, monkey A2A receptor (striatal tissue)
[2] = tested on: phosphodiesterase (IV) enzyme; experiment: Enzyme assay panel, phosphodiesterase (IV); assay type: biochemical; conditions: at 10 μM
Description: The IC50 values (concentration causing a half-maximal inhibition of control values), EC50 values (concentration causing a half-maximal stimulation of control values) and Hill coefficients (nH) were determined by non-linear regression analysis of the concentration-response curves using Hill equation curve fitting. See FIG. 33 for general procedures and FIG. 34-36 for experimental conditions for enzyme assays.
It was tested at several concentrations (for IC50 or EC50 value determination), and the data were compared with historical values determined at Cerep.

male Sprague Dawley rats = experiment: Elevated plus-maze test; assay type: in vivo, rat
Description: Animals are placed in the center of an elevated maze containing two closed and two open arms. The time spent in the open arms of the maze, together with the number of times the animals enter the open arms of the maze, are taken as indices of the level of neophobic anxiety of these animals.
Levels of anxiety were determined by the time spent and the distance traveled in the open arms of the maze. Data are mean±SEM based on 12 animals per group. […] FIG. 5: SEM: standard error of the mean. Results are based on 11 animals. […] Data analyzed with a paired t-test.
Adult male Sprague Dawley rats weighing approximately 200 g at the start of the experiment were used. They were housed in groups of four in Macrolon Type 3 cages (810 cm^2) with sawdust bedding. The animals were maintained on a 12:12 h light-dark cycle with light onset at 6 am., with free access to tap water and food (Promikliba Kaiseraugst, Switzerland). Room temperature (21-23° C.) and humidity (55-65%) were kept constant.
The elevated plus-maze consisted of two open arms perpendicular to two closed arms (each arm was 10 cm wide×50 cm long) extending from a small open central area. The apparatus was constructed from grey polyvinylchloride plastic and placed 50 cm above the floor. […] The apparatus was situated in a sound-attenuated observation room with controlled illumination (200 lux on the central platform of the plus-maze). Rats were tested in a randomized order. The test started by placing the animal on the central platform facing a closed arm. The duration of the test was 5 minutes. 70% ethanol was used to clean the apparatus prior to the introduction of each animal.
The plus-maze was positioned in the middle of a closed black environment with the animal observed via a closed circuit video camera mounted above the maze. Behavioral analysis was conducted using a computerized system (Ethovision, Noldus Information Technology, The Netherlands).
Each treatment group consisted of 9 to 12 rats. Each animal was used only for a single experiment. […] After drug administration, rats were isolated in small cages without sawdust and water. After one hour, they were placed in the plus-maze.
The measures selected to represent anxiolytic-like behavior was the time spent (sec) within the open arms, the distance traveled (cm) within the open arms, and the number of transitions between the central platform and the open arms. The measure used to quantify motor activity was the distance traveled per second (speed) within the closed arms.
The compounds were administered p.o. (gavage) in a volume of 5 ml/kg body weight. Control animals received equal volume injections of vehicle.
A p-value lower than 0.05 was considered significant. The effects of chlordiazepoxide were analysed using a t-test.

[3] = 3, 10 and 30 mg/kg po, vs vehicle

Chain of A2A receptors in the monkey (A0A2K6V039 entry or part of it): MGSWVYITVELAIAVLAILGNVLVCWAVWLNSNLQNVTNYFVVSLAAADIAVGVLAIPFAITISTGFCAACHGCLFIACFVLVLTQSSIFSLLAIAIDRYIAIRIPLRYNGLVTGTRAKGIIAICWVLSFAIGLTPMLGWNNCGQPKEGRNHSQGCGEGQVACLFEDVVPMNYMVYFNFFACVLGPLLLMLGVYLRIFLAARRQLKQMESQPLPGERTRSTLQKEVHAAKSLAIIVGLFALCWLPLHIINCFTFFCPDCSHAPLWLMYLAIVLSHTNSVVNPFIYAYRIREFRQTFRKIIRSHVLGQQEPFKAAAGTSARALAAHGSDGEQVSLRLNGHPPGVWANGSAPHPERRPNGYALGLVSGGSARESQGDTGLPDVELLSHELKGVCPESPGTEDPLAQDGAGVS

`COc1ccc(N2CCOCC2)c2sc(NC(=O)N3CCC(C)(O)CC3)nc12` [4-hydroxy-4-methyl-piperidine-1-carboxylic acid (4-methoxy-7-morpholin-4-yl-benzothiazol-2-yl)-amide] was tested, and the “pKi, monkey A2A receptor” value [1] was 7.9, the “inhibition of phosphodiesterase (IV) enzyme” value [2] was 88% and the “distance traveled in open arms” value (male Sprague Dawley rats; [3]) was “dose-dependent increase; also recorded: significantly and dose-dependently increased”. For the same compound, the “entries into the open arms” value (male Sprague Dawley rats; [3]) was “dose-dependent increase; also recorded: significantly and dose-dependently increased”, the “speed in the closed arms” value (male Sprague Dawley rats; [3]) was “increased speed in the closed arms reaching statistical significance at 10 and 30 mg/kg” and the “time spent in the open arms” value (male Sprague Dawley rats; [3]) was “significant dose-dependent increase; also recorded: significantly and dose-dependently increased”. The “dose of maximal effect, all parameters measured” value (male Sprague Dawley rats; po) was 30 mg/kg, the “lowest dose that reached statistical significance, distance traveled in the open arms” value (male Sprague Dawley rats; po) was 30 mg/kg and the “lowest dose that reached statistical significance, open arm entries” value (male Sprague Dawley rats; po) was 10 mg/kg. For the same compound, the “lowest dose that reached statistical significance, time spent in the open arms” value (male Sprague Dawley rats; po) was 30 mg/kg.
